Consider five compounds from the supplement of paper PMC4862054.

For experiment [1], the system named is MDA-MB-453. The experiment can be described thus: normalised viability (% of control), CellTiter-Blue; higher = more viable cells (100 = DMSO, 0 = benzethonium chloride kill control). As to conditions: 1 nM; incubation time: 72 h. The procedure:
(§1)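 DSRT, CellTiter-Blue viability, 72 h incubation. Signal is normalised to DMSO and benzethonium chloride controls. Value is the normalised response at dose 1.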
For orientation: The colour change of resazurin is a common sign of viable cells or microbes.

A further experiment concerns CAL-148. Described as above. As to conditions: 1 nM; incubation time: 72 h. The procedure: as §1
In the next experiment the test system is MDA-MB-468. Described as above. As to conditions: 1 nM; incubation time: 72 h. The procedure:
as §1

A further experiment relates to HDQ-P1. Described as above. The conditions noted are these: 1 nM; incubation time: 72 h. The procedure:
as §1

A further experiment deals with DU-4475. Described as above. As to conditions: 1 nM; incubation time: 72 h. The procedure: as §1
A further experiment deals with SK-BR-3. The description is as above. The conditions noted are these: 1 nM; incubation time: 72 h. The procedure: as §1
The subject of another experiment is CAL-51. Described as above. As to conditions: 1 nM; incubation time: 72 h. The procedure: as §1
A further experiment relates to HCC1937. The description is as above. The conditions noted are these: 1 nM; incubation time: 72 h. The procedure: as §1
The subject of experiment [2] is MFM-223. Described as above. As to conditions: 1 nM; incubation time: 72 h. The procedure: as §1
The test system of the next experiment is MDA-MB-436. The description is as above. As to conditions: 1 nM; incubation time: 72 h. The procedure:
as §1

For a further experiment, the system named is CAL-120. Described as above. As to conditions: 1 nM; incubation time: 72 h. The procedure:
as §1

In the next experiment the test system is Hs578T. The experiment is described as above. The conditions noted are these: 1 nM; incubation time: 72 h. The procedure: as §1
Experiment [3] deals with HCC1143. Described as above. As to conditions: 1 nM; incubation time: 72 h. The procedure:
as §1

For another experiment, the system named is BT-549. The experiment is described as above. As to conditions: 1 nM; incubation time: 72 h. The procedure: as §1
For a further experiment, the system named is BT-474. The experiment is described as above. As to conditions: 1 nM; incubation time: 72 h. The procedure:
as §1

For a further experiment, the system named is HCC1599. The description is as above. The conditions noted are these: 1 nM; incubation time: 72 h. The procedure:
as §1

In experiment [4] the test system is CAL-85-1. The description is as above. As to conditions: 1 nM; incubation time: 72 h. The procedure: as §1
The subject of the next experiment is MDA-MB-231. Described as above. The conditions noted are these: 1 nM; incubation time: 72 h. The procedure: as §1
Experiment [5] concerns MDA-MB-453. The conditions noted are these: 72 h. A digest of the protocol: (§2)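 Plates of 384 wells holding compound in 5 µl medium received breast cancer cell lines in 20 µl suspension and were incubated 72 h. CellTiter-Blue (2.5 µl, 2 h, 37 °C) was used for viability, read at 560/590 nm, and every plate was normalised to vehicle and a positive kill control and assessed by Z'-factor. The EC50 derives from a percent-inhibition dose-response curve fit censored at the highest concentration, leaving out rows whose drug sensitivity score was zero.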

Experiment [6] concerns HCC1143. The experiment can be described thus: normalised viability (% of control), CellTiter-Blue; higher = more viable cells (about 100 = DMSO control). As to conditions: 100 nM; incubation time: 72 h. In outline: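 Normalised viability is given for a single listed concentration of the series. In 384-well plates, breast cancer cell lines were incubated 72 h with compound, then read with CellTiter-Blue (2 h, 37 °C) at 560/590 nm. Per-plate scaling set vehicle to 100 and a positive kill control to 0, with Z'-factor quality control.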

The test system of experiment [7] is MFM-223. The conditions noted are these: 72 h. In outline:
as §2

The subject of experiment [8] is CAL-85-1. The conditions noted are these: 72 h. The procedure: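 Drug sensitivity and resistance testing (DSRT) of breast cancer cell lines in 384-well plates, 5 concentrations in 10-fold dilutions over a compound-specific 10,000-fold range. After 72 h, cytotoxicity was read by CellTox Green fluorescence and viability by CellTiter-Glo luminescence (multiplexed), normalised to DMSO and benzethonium chloride controls. EC50 is the inflection point of the fitted dose-response curve (bottom asymptote free, so it can be relative for partial curves) and is censored at the highest tested concentration. Rows with DSS 0 (no meaningful response) were excluded.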

Structures are written as SMILES. Where “and” joins values, the source holds several entries; their conditions need not be identical. Identical values can stand only once.

Regarding `O=S(=O)(c1cccc2cnccc12)N1CCCNCC1` [Fasudil], the normalised viability worked out at 121% with MDA-MB-453 [1]; 90.8% with CAL-148; 102% in the experiment on MDA-MB-468; 99.9% with HDQ-P1; 108% with DU-4475; 93.8% in the experiment on SK-BR-3. Besides, the normalised viability came to 111% in the experiment with CAL-51; 88.6% in the experiment with HCC1937; 105% in the experiment with MFM-223 [2]; 109% in the experiment on MDA-MB-436; 83.9% in the experiment with CAL-120; 116% with Hs578T. For the same compound, the normalised viability in the experiment on HCC1143 [3] was 92.8%; in the experiment with BT-549 it was 98.8%; in the experiment on BT-474, 102%; in the experiment on HCC1599 it was 99.4%; in the experiment with CAL-85-1 [4], 96%; with MDA-MB-231 it was 106%. The normalised viability in the experiment on HCC1143 [6] worked out at 87.2%. The figures for the “EC50, CellTiter-Blue viability” value in the experiment on MDA-MB-453 [5] and with MFM-223 [7] were over 10 µM and 1.69 µM, respectively.

Consider `O=C(NC[C@H](O)CO)c1ccncc1Nc1ccc(I)cc1F` [Pimasertib], for which, in the experiment with CAL-85-1 [8], the “EC50, CellTox Green” value is 1.34 µM.

Consider `Nc1cccc2c1CN(C1CCC(=O)NC1=O)C2=O` (centres undefined) [Lenalidomide], for which the normalised viability with MDA-MB-453 [1] is 87.5% and 104%; in the experiment with CAL-148, 92.4% and 102%; with MDA-MB-468, 99.6% and 98.9%; with HDQ-P1, 86.6% and 103%; in the experiment on DU-4475, 99% and 102%; with SK-BR-3 it was 94.7% and 87.4%. The normalised viability was 104% and 105% with CAL-51; 90.1% and 78% in the experiment on HCC1937; 89.4% and 94.1% with MFM-223 [2]; 97.6% and 82.2% with MDA-MB-436; 76.8% and 81.8% with CAL-120; 97.1% and 106% in the experiment with Hs578T. Also, the normalised viability is 85.5% and 80.6% in the experiment on HCC1143 [3]; 108% and 115% in the experiment on BT-549; 93.9% and 73.5% with BT-474; 92.1% and 98.5% with HCC1599; 79.2% and 80.7% with CAL-85-1 [4]; 85.2% and 82.6% in the experiment on MDA-MB-231. Further, the normalised viability in the experiment on HCC1143 [6] was 81.8% and 68%.

Regarding `COc1nc(N)nc2c1ncn2[C@@H]1O[C@H](CO)[C@@H](O)[C@@H]1O` [Nelarabine], the normalised viability is 101% and 80.4% in the experiment on MDA-MB-453 [1]; 101% and 110% with CAL-148; 103% and 92.2% with MDA-MB-468; 77.2% and 91.2% in the experiment with HDQ-P1; 109% and 118% with DU-4475; 90% and 95.9% with SK-BR-3. For the same compound, the normalised viability in the experiment with CAL-51 was 102% and 99.3%; with HCC1937, 94.7% and 81.3%; with MFM-223 [2], 97.6% and 107%; in the experiment with MDA-MB-436, 98.1% and 89.7%; in the experiment on CAL-120, 101% and 102%; in the experiment on Hs578T, 99.1% and 107%. The normalised viability is 105% and 98.5% with HCC1143 [3]; 92% and 96.5% in the experiment on BT-549; 121% and 119% with HCC1599; 105% and 107% in the experiment on CAL-85-1 [4]; 93.7% and 78.7% in the experiment on MDA-MB-231.

For the compound `O=C(CCBr)N1CCN(C(=O)CCBr)CC1` [Pipobroman], the normalised viability worked out at 108% with MDA-MB-453 [1]; 115% in the experiment on CAL-148; 95% in the experiment with MDA-MB-468; 99.3% in the experiment with HDQ-P1; 111% with DU-4475; 92.1% in the experiment with SK-BR-3. In addition, the normalised viability was determined as 112% with CAL-51; 87.4% with HCC1937; 82.8% in the experiment with MFM-223 [2]; 107% with MDA-MB-436; 89.1% in the experiment with CAL-120; 95.3% with Hs578T. In addition, the normalised viability with HCC1143 [3] worked out at 94.7%; in the experiment on BT-549, 83.2%; with BT-474, 98.9%; in the experiment with HCC1599, 103%; with CAL-85-1 [4], 96%; in the experiment on MDA-MB-231 it was 97.8%. Further, the normalised viability in the experiment with HCC1143 [6] was 87.8%. Besides, the results for the “EC50, CellTiter-Blue viability” value in the experiment on MDA-MB-453 [5] and in the experiment with MFM-223 [7] were 6.14 µM and 6.19 µM, respectively.
